Measurements published in doi:10.1101/2023.03.24.534094v2 (biorxiv, 2023).

How the values were obtained:
EpHA2 (kinase domain) = EpHA2 (kinase domain) (Homo sapiens, UniProt P29317); assay: X-ray crystal structure; assay type: binding; conditions: co-crystal, 293 K
CK1e = CK1e (Homo sapiens, UniProt P49674); assay: biochemical; conditions: read-out: dTm 12
Erk3 = Erk3 (Homo sapiens, UniProt Q16659); assay: biochemical; conditions: read-out: dTm 12
MSSK1 = MSSK1 (Homo sapiens, UniProt Q9UPE1); assay: biochemical; conditions: read-out: dTm 12
SLK = SLK (Homo sapiens, UniProt Q9H2G2); assay: biochemical; conditions: read-out: dTm 12
Sequence of SLK (Q9H2G2 whole entry): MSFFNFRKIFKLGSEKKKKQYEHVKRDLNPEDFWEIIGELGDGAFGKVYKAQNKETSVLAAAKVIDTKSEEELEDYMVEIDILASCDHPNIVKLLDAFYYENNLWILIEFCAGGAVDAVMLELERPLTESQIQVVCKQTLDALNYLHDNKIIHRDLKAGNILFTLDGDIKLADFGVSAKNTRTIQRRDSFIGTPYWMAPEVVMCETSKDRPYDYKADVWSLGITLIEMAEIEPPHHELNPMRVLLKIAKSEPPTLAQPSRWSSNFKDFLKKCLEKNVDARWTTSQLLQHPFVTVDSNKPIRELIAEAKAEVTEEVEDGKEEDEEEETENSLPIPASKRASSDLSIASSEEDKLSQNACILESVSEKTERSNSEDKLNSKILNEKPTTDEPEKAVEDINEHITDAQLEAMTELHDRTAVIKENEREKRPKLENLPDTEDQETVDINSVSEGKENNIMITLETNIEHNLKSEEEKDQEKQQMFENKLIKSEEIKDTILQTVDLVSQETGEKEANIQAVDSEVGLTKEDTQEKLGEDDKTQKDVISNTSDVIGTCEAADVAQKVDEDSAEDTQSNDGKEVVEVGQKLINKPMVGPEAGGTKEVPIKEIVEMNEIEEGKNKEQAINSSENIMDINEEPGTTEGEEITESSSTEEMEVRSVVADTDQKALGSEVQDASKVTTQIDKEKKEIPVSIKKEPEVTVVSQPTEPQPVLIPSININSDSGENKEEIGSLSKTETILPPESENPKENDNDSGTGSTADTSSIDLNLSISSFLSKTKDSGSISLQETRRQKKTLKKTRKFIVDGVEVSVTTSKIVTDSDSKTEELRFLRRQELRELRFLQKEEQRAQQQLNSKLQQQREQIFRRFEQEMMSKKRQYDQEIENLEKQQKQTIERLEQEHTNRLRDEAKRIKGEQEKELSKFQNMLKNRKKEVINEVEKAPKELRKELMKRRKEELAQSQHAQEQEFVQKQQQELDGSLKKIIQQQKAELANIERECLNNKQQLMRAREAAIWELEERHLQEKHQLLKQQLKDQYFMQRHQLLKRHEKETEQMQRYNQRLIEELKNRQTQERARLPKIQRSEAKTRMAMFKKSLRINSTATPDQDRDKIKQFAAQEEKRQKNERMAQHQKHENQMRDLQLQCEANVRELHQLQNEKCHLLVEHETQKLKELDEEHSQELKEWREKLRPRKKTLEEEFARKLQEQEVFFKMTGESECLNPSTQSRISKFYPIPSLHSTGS

Sequence of EpHA2 (kinase domain) (P29317 596-900): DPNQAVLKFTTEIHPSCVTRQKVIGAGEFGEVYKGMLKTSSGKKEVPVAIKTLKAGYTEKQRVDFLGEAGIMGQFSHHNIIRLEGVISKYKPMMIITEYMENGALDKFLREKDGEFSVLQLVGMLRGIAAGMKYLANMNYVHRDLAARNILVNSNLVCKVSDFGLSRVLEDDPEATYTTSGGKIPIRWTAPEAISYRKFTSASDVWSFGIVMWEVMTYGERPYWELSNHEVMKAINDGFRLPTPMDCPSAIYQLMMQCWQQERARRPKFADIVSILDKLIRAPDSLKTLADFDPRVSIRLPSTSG
Sequence of MSSK1 (Q9UPE1 whole entry): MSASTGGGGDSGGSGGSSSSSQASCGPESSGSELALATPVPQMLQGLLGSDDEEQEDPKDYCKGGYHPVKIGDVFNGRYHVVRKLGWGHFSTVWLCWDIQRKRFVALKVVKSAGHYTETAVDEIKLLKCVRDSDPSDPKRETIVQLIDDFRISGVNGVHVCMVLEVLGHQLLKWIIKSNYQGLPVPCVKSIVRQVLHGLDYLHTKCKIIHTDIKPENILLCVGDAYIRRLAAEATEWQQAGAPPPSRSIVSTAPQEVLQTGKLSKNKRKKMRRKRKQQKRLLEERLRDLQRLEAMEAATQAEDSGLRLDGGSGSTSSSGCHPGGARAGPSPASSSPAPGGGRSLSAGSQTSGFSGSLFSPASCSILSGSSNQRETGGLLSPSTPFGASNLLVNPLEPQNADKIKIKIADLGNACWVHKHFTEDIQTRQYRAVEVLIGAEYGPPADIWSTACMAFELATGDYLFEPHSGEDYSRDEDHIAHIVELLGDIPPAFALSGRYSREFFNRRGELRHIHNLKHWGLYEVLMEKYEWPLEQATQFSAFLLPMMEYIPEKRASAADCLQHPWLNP
Sequence of Erk3 (Q16659 whole entry): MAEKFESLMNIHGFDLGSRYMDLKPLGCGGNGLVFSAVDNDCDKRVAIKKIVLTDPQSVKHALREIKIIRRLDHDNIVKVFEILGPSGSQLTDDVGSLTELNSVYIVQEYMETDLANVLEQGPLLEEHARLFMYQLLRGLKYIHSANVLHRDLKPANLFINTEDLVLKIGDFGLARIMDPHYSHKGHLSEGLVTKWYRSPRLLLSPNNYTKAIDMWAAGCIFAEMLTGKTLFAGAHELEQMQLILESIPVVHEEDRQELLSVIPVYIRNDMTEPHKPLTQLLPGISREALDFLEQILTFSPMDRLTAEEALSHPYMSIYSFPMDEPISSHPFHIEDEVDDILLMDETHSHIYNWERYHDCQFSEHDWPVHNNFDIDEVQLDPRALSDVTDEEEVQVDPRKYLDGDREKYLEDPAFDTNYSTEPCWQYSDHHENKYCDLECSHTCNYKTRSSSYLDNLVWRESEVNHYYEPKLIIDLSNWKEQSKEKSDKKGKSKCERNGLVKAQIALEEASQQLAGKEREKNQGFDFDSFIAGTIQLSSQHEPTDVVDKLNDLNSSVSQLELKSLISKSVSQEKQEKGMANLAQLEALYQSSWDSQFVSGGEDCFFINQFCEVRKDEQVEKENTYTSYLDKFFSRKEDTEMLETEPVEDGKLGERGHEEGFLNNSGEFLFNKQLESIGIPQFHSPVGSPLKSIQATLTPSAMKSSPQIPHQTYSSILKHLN
Sequence of CK1e (P49674 whole entry): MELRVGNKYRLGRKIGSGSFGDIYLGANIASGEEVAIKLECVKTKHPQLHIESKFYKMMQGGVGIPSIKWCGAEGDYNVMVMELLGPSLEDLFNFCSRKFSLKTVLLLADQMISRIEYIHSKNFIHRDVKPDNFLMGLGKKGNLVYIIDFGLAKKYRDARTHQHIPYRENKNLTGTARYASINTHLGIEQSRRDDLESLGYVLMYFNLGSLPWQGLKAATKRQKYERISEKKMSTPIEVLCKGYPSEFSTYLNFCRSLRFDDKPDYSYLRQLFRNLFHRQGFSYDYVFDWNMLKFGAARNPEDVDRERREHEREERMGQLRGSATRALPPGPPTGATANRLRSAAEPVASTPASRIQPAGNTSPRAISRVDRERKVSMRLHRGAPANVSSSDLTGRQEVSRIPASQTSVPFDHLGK

Row | Structure (SMILES) | X-ray crystal structure (EpHA2 (kinase domain)) | ΔTm at 10 µM (CK1e) [°C] | ΔTm at 10 µM (Erk3) [°C] | ΔTm at 10 µM (MSSK1) [°C] | ΔTm at 10 µM (SLK) [°C]
1 | CNc1ncc2cc(-c3cc(C(F)(F)F)ccc3Cl)c(=O)n(CCCCN)c2n1 [compound 9, 8-(4-Aminobutyl)-6-(2-chloro-5-(trifluoromethyl)phenyl)-2-(methylamino)pyrido[2,3-d]pyrimidin-7(8H)-one] | 8BIO (EpHA2-9 complex) |  |  |  | 
2 | CNc1ncc2cc(-c3cc(F)c(-c4cccc(C)n4)cc3F)c(=O)n(CCCCN)c2n1 [compound 12, 8-(4-Aminobutyl)-6-(2,5-difluoro-4-(6-methylpyridin-2-yl)phenyl)-2-(methylamino)pyrido[2,3-d]pyrimidin-7(8H)-one] |  | 3.1 | 0.7 | -0.2 | 2.9
